Marks after values point to notes of the source that are not given here.
Assay: Phase 1/2 first-in-human clinical study, safety evaluation (DLT, TEAE, SAE)

## C=C1C[C@@H]2CC[C@H]1[C@@H](C(=O)N1CCC3(CC1)CN(c1ncncc1Oc1ccc(F)cc1C(=O)N(C(C)C)C(C)C)C3)N2 [the present compound, 5-fluoro-2-[(4-{7-[(1S,3S,4R)-5-methylidene-2-azabicyclo[2.2.2]octane-3-carbonyl]-2,7-diazaspiro[3.5]nonan-2-yl}pyrimidin-5-yl)oxy]-N,N-di(propan-2-yl)benzamide]
40 mg BID Arm B (N=4; one patient not DLT evaluable)
  Patients with any DLTs: 0* n (%) and (0.0) n (%)
24 patients enrolled
  cases of differentiation syndrome in patients with MLLr or NPM1m: no cases
  grade of the majority of TEAEs related to the present compound: Grade 1 or 2
  patients who experienced at least one TEAE: 24 patients
  related TEAE leading to dose withdrawn or dose reduction: No related TEAE leading to dose withdrawn or dose reduction
24 patients enrolled (40-120 mg BID Arm A, 40-60 mg BID Arm B)
  patients who developed DLT: none
24 patients, Arm A + Arm B
  patients with fatal SAEs, total (all unrelated): 8 patients
  patients with serious adverse events (SAEs), total: 15 patients
40 to 300 mg BID (Examples 1 and 5)
  safety in humans: confirmed to be safe
43 patients, 40-200 mg BID
  Treatment-related QT interval prolongation events: not reported
  cases of differentiation syndrome in patients with MLLr or NPM1m: no cases
  drug-related AE resulting in permanent treatment discontinuation: No drug-related AE
  grade of the majority of TEAEs: Grade 1 or Grade 2
  treatment-related deaths: no treatment-related deaths
43 patients, any dose level of 40-200 mg
  DLTs: No DLTs
43 patients, patient with TP-53 mutation
  cases of suspected differentiation syndrome related to the present compound: One
57 patients, 40-300 mg
  Differentiation syndrome (DS): 3 patients
  drug-related AE resulting in permanent treatment discontinuation: No drug-related AE
  treatment-related deaths: no treatment-related deaths
57 patients, any dose level of 40-300 mg
  DLTs: no DLTs
Arm A N=14, Any Grade
  Patients with Any TEAE: 14 (100.0) n (%)
  TEAE: Alanine aminotransferase increased: 1 (7.1) n (%)
  TEAE: Anaemia: 5 (35.7) n (%)
  TEAE: Aspartate aminotransferase increased: 2 (14.3) n (%)
  TEAE: Blood and lymphatic system disorders: 10 (71.4) n (%)
  TEAE: Constipation: 3 (21.4) n (%)
  TEAE: Decreased appetite: 3 (21.4) n (%)
  TEAE: Disease progression: 1 (7.1) n (%)
  TEAE: Dyspnoea: 3 (21.4) n (%)
  TEAE: Epistaxis: 1 (7.1) n (%)
  TEAE: Fatigue: 3 (21.4) n (%)
  TEAE: Gastrointestinal disorders: 9 (64.3) n (%)
  TEAE: General disorders and administration site disorders: 8 (57.1) n (%)
  TEAE: Headache: 5 (35.7) n (%)
  TEAE: Hemorrhoids: 0 n (%)
  TEAE: Hypertriglyceridaemia: 1 (7.1) n (%)
  TEAE: Hypoalbuminaemia: 3 (21.4) n (%)
  TEAE: Hypocalcaemia: 3 (21.4) n (%)
  TEAE: Hypokalaemia: 2 (14.3) n (%)
  TEAE: Hypomagnaesemia: 3 (21.4) n (%)
  TEAE: Hyponatraemia: 4 (28.6) n (%)
  TEAE: Infections and Infestations: 8 (57.1) n (%)
  TEAE: Investigations: 10 (71.4) n (%)
  TEAE: Metabolism and nutrition disorders: 11 (78.6) n (%)
  TEAE: Musculoskeletal and connective tissue disorders: 7 (50.0) n (%)
  TEAE: Nausea: 5 (35.7) n (%)
  TEAE: Nervous System Disorders: 7 (50.0) n (%)
  TEAE: Oedema peripheral: 2 (14.3) n (%)
  TEAE: Pain in extremity: 3 (21.4) n (%)
  TEAE: Platelet count decreased: 3 (21.4) n (%)
  TEAE: Pneumonia: 2 (14.3) n (%)
  TEAE: Pruritus: 3 (21.4) n (%)
  TEAE: Pyrexia: 3 (21.4) n (%)
  TEAE: Respiratory, thoracic and mediastinal disorders: 6 (42.9) n (%)
  TEAE: Sepsis: 2 (14.3) n (%)
  TEAE: Skin and subcutaneous tissue disorders: 5 (35.7) n (%)
  TEAE: Stomatitis: 1 (7.1) n (%)
  TEAE: Vomiting: 3 (21.4) n (%)
  related TEAE: Aspartate aminotransferase increased: 0 n (%)
  related TEAE: Blood and lymphatic system disorders: 0 n (%)
  related TEAE: Decreased appetite: 2 (14.3) n (%)
  related TEAE: Differentiation syndrome: 1 (7.1) n (%)
  related TEAE: Gastrointestinal disorders: 2 (14.3) n (%)
  related TEAE: General disorders and administration site conditions: 1 (7.1) n (%)
  related TEAE: Headache: 1 (7.1) n (%)
  related TEAE: Hypertriglyceridaemia: 0 n (%)
  related TEAE: Hyperuricaemia: 1 (7.1) n (%)
  related TEAE: Increased appetite: 1 (7.1) n (%)
  related TEAE: Investigations: 0 n (%)
  related TEAE: Leukocytosis: 0 n (%)
  related TEAE: Metabolism and nutrition disorders: 4 (28.6) n (%)
  related TEAE: Nausea: 2 (14.3) n (%)
  related TEAE: Neoplasms benign, malignant and unspecified (incl cysts and polyps): 1 (7.1) n (%)
  related TEAE: Nervous system disorders: 1 (7.1) n (%)
  related TEAE: Thirst: 1 (7.1) n (%)
  related TEAE: Vomiting: 2 (14.3) n (%)
Arm A N=14, ≥Grade 3
  Patients with Any TEAE: 14 (100.0) n (%)
  TEAE: Alanine aminotransferase increased: 0 n (%)
  TEAE: Anaemia: 4 (28.6) n (%)
  TEAE: Aspartate aminotransferase increased: 1 (7.1) n (%)
  TEAE: Blood and lymphatic system disorders: 8 (57.1) n (%)
  TEAE: Constipation: 0 n (%)
  TEAE: Decreased appetite: 0 n (%)
  TEAE: Disease progression: 1 (7.1) n (%)
  TEAE: Dyspnoea: 1 (7.1) n (%)
  TEAE: Epistaxis: 0 n (%)
  TEAE: Fatigue: 0 n (%)
  TEAE: Gastrointestinal disorders: 1 (7.1) n (%)
  TEAE: General disorders and administration site disorders: 2 (14.3) n (%)
  TEAE: Headache: 0 n (%)
  TEAE: Hemorrhoids: 0 n (%)
  TEAE: Hypertriglyceridaemia: 0 n (%)
  TEAE: Hypoalbuminaemia: 0 n (%)
  TEAE: Hypocalcaemia: 0 n (%)
  TEAE: Hypokalaemia: 0 n (%)
  TEAE: Hypomagnaesemia: 0 n (%)
  TEAE: Hyponatraemia: 0 n (%)
  TEAE: Infections and Infestations: 6 (42.9) n (%)
  TEAE: Investigations: 4 (28.6) n (%)
  TEAE: Metabolism and nutrition disorders: 1 (7.1) n (%)
  TEAE: Musculoskeletal and connective tissue disorders: 0 n (%)
  TEAE: Nausea: 0 n (%)
  TEAE: Nervous System Disorders: 2 (14.3) n (%)
  TEAE: Oedema peripheral: 0 n (%)
  TEAE: Pain in extremity: 0 n (%)
  TEAE: Platelet count decreased: 1 (7.1) n (%)
  TEAE: Pneumonia: 2 (14.3) n (%)
  TEAE: Pruritus: 0 n (%)
  TEAE: Pyrexia: 0 n (%)
  TEAE: Respiratory, thoracic and mediastinal disorders: 2 (14.3) n (%)
  TEAE: Sepsis: 2 (14.3) n (%)
  TEAE: Skin and subcutaneous tissue disorders: 0 n (%)
  TEAE: Stomatitis: 0 n (%)
  TEAE: Vomiting: 0 n (%)
  related TEAE: Aspartate aminotransferase increased: 0 n (%)
  related TEAE: Blood and lymphatic system disorders: 0 n (%)
  related TEAE: Decreased appetite: 0 n (%)
  related TEAE: Differentiation syndrome: 1 (7.1) n (%)
  related TEAE: Gastrointestinal disorders: 0 n (%)
  related TEAE: General disorders and administration site conditions: 0 n (%)
  related TEAE: Headache: 0 n (%)
  related TEAE: Hypertriglyceridaemia: 0 n (%)
  related TEAE: Hyperuricaemia: 0 n (%)
  related TEAE: Increased appetite: 0 n (%)
  related TEAE: Investigations: 0 n (%)
  related TEAE: Leukocytosis: 0 n (%)
  related TEAE: Metabolism and nutrition disorders: 0 n (%)
  related TEAE: Nausea: 0 n (%)
  related TEAE: Neoplasms benign, malignant and unspecified (incl cysts and polyps): 1 (7.1) n (%)
  related TEAE: Nervous system disorders: 0 n (%)
  related TEAE: Thirst: 0 n (%)
  related TEAE: Vomiting: 0 n (%)
Arm B N=10, Any Grade
  Patients with Any TEAE: 10 (100.0) n (%)
  TEAE: Alanine aminotransferase increased: 2 (20.0) n (%)
  TEAE: Anaemia: 1 (10.0) n (%)
  TEAE: Aspartate aminotransferase increased: 2 (20.0) n (%)
  TEAE: Blood and lymphatic system disorders: 3 (30.0) n (%)
  TEAE: Constipation: 1 (10.0) n (%)
  TEAE: Decreased appetite: 0 n (%)
  TEAE: Disease progression: 2 (20.0) n (%)
  TEAE: Dyspnoea: 1 (10.0) n (%)
  TEAE: Epistaxis: 2 (20.0) n (%)
  TEAE: Fatigue: 2 (20.0) n (%)
  TEAE: Gastrointestinal disorders: 6 (60.0) n (%)
  TEAE: General disorders and administration site disorders: 3 (30.0) n (%)
  TEAE: Headache: 1 (20.0) n (%)
  TEAE: Hemorrhoids: 2 (20.0) n (%)
  TEAE: Hypertriglyceridaemia: 2 (20.0) n (%)
  TEAE: Hypoalbuminaemia: 0 n (%)
  TEAE: Hypocalcaemia: 1 (10.0) n (%)
  TEAE: Hypokalaemia: 3 (30.0) n (%)
  TEAE: Hypomagnaesemia: 0 n (%)
  TEAE: Hyponatraemia: 0 n (%)
  TEAE: Infections and Infestations: 6 (60.0) n (%)
  TEAE: Investigations: 3 (30.0) n (%)
  TEAE: Metabolism and nutrition disorders: 5 (50.0) n (%)
  TEAE: Musculoskeletal and connective tissue disorders: 2 (20.0) n (%)
  TEAE: Nausea: 3 (30.0) n (%)
  TEAE: Nervous System Disorders: 2 (20.0) n (%)
  TEAE: Oedema peripheral: 0 n (%)
  TEAE: Pain in extremity: 1 (10.0) n (%)
  TEAE: Platelet count decreased: 0 n (%)
  TEAE: Pneumonia: 2 (20.0) n (%)
  TEAE: Pruritus: 0 n (%)
  TEAE: Pyrexia: 0 n (%)
  TEAE: Respiratory, thoracic and mediastinal disorders: 3 (30.0) n (%)
  TEAE: Sepsis: 2 (20.0) n (%)
  TEAE: Skin and subcutaneous tissue disorders: 1 (10.0) n (%)
  TEAE: Stomatitis: 2 (20.0) n (%)
  TEAE: Vomiting: 1 (10.0) n (%)
  related TEAE: Aspartate aminotransferase increased: 1 (10.0) n (%)
  related TEAE: Blood and lymphatic system disorders: 1 (10.0) n (%)
  related TEAE: Decreased appetite: 0 n (%)
  related TEAE: Differentiation syndrome: 0 n (%)
  related TEAE: Gastrointestinal disorders: 1 (10.0) n (%)
  related TEAE: General disorders and administration site conditions: 0 n (%)
  related TEAE: Headache: 0 n (%)
  related TEAE: Hypertriglyceridaemia: 1 (10.0) n (%)
  related TEAE: Hyperuricaemia: 0 n (%)
  related TEAE: Increased appetite: 0 n (%)
  related TEAE: Investigations: 1 (10.0) n (%)
  related TEAE: Leukocytosis: 1 (10.0) n (%)
  related TEAE: Metabolism and nutrition disorders: 1 (10.0) n (%)
  related TEAE: Nausea: 1 (10.0) n (%)
  related TEAE: Neoplasms benign, malignant and unspecified (incl cysts and polyps): 0 n (%)
  related TEAE: Nervous system disorders: 0 n (%)
  related TEAE: Thirst: 0 n (%)
  related TEAE: Vomiting: 1 (10.0) n (%)
Arm B N=10, ≥Grade 3
  Patients with Any TEAE: 8 (80.0) n (%)
  TEAE: Alanine aminotransferase increased: 0 n (%)
  TEAE: Anaemia: 0 n (%)
  TEAE: Aspartate aminotransferase increased: 1 (10.0) n (%)
  TEAE: Blood and lymphatic system disorders: 3 (30.0) n (%)
  TEAE: Constipation: 0 n (%)
  TEAE: Decreased appetite: 0 n (%)
